Results on 76 compounds are retold here after the RepoRT retention time repository (doi:10.1007/s11306-011-0298-z).

The data set can be described thus: RP, Waters ACQUITY UPLC HSS T3, 100 × 2.1 mm, 1.8 µm, 30 °C, 0.3 mL/min, estimated dead time 0.73 min; A: water + 0.1% formic acid, pH 3; B: methanol + 0.1% formic acid, pH 3; gradient (min/%B) 0/0 6/0 56/100 60/100. As to conditions: stereoisomer not certain.
For `O=C(O)c1ccc[n+](C2OC(COP(=O)([O-])O)C(O)C2O)c1` (stereo unspecified) [nicotinic acid mononucleotide], the LC retention time is 2.1 min.

Take `COc1ccc(-c2cc(=O)c3c(OC)c(OC)c(OC)cc3o2)cc1O` [eupatorin-5-methylether]: the LC retention time is 37.4 min.

Take `NC(=O)C[C@H](N)C(=O)O` [L-asparagine]: the LC retention time is 1.27 min.

On to `N[C@@H](CO)C(=O)O` [L-serine], for which the LC retention time is 1.22 min.

In the case of `CCCCCC(O)C=CC=CCC=CCC=CCCCC(=O)O` [15(S)hydroxy-(5Z,8Z,11Z,13E)-eicosatetraenoic acid], the LC retention time is 50.4 min.

In the case of `CC1(O)CCC(C(C)(C)O)CC1` (stereo not drawn) [trans-terpin], the LC retention time is 27.9 min.

As for `N[C@@H](COP(=O)(O)O)C(=O)O` [O-phospho-L-serine], the LC retention time is 1.21 min.

In the case of `C=CC1CN2CCC1CC2C(O)c1ccnc2ccccc12` (stereo unspecified) [chinchonidine sulphate], the LC retention time is 19.1 min.

For the compound `CCCCCCCCCCCCCC(=O)OCC` [ethyl tetradecanoate], the LC retention time is 55.1 min.

For `COc1cc2ccc(=O)oc2cc1O` [scopoletin], the LC retention time was 24.6 min.

On to `O=c1cc(-c2ccc(O)c(O)c2)oc2cc(O)cc(O)c12` [luteolin], for which the LC retention time is 34.7 min.

As for `COc1cc(C=CCO)ccc1O` [coniferyl alcohol], the LC retention time was 22.8 min.

In the case of `OCC1OC(Oc2cc3c(O)cc(O)cc3[o+]c2-c2ccc(O)cc2)C(O)C(O)C1O` (stereo unspecified) [pelargonidin-3-glucoside], the LC retention time was 23.7 min.

In the case of `C=C(C)C1CCC2(C)CCC3(C)C(CCC4C5(C)CCC(O)C(C)(C)C5CCC43C)C12` (stereo unspecified) [lupeol], the LC retention time is 60 min.

With `OCC1OC(Oc2cc(O)cc(C=Cc3ccc(O)c(O)c3)c2)C(O)C(O)C1O` (stereo unspecified) [astringin], the LC retention time was 22.7 min.

For the compound `CC(C)(CO)C(O)C(=O)NCCC(=O)O` [D-pantothenic acid], the LC retention time was 14.3 min.

On to `CC(=CCC1=C(C)C(=O)c2ccccc2C1=O)CCCC(C)CCCC(C)CCCC(C)C` (stereo unspecified) [vitamin K1], for which the LC retention time was 57.7 min.

For the compound `CC(C=CC1(O)C(C)=CC(=O)CC1(C)C)=CC(=O)O` (stereo unspecified) [abscisic acid], the LC retention time is 31.3 min.

As for `O=c1oc2c(O)c(O)cc3c(=O)oc4c(O)c(O)cc1c4c23` [ellagic acid], the LC retention time was 30.2 min.

Regarding `CCCCCCCCOC1OC(CO)C(O)C(O)C1O` (stereo unspecified) [octyl glucopyranoside], the LC retention time was 37.6 min.

`Cc1ncc(C[n+]2csc(CCO)c2C)c(N)n1` [thiamine]: the LC retention time was 1.6 min.

For `CCC=CCC1C(=O)CCC1CC(=O)OC` (stereo unspecified) [methyl jasmonate], the LC retention time is 38.4 min.

For the compound `Oc1ccc(C2c3c(O)cc(O)cc3C3C(c4ccc(O)cc4)c4c(O)cc(O)cc4C23)cc1` (stereo unspecified) [pallidol], the LC retention time is 25.9 min.

Regarding `O=CC(=O)O` [glyoxylic acid], the LC retention time was 1.3 min.

With `C1CCNC1` [pyrrolidine], the LC retention time was 1.5 min.

As for `Oc1ccc(C2Oc3cc(O)cc4c3C2c2cc(O)cc3c2C(c2cc(O)cc5c2C4C(c2ccc(O)cc2)O5)C(c2ccc(O)cc2)O3)cc1` (stereo unspecified) [a-viniferin], the LC retention time is 33 min.

Take `CCCCCCCCC=CCCCCCCCC(=O)OC(COC(=O)CCCCCCCCCCCCCCC)COP(=O)([O-])OCC[N+](C)(C)C` [L-a-Phosphatidylcholine]: the LC retention time is 59.9 min.

On to `CCCCCCCCCCCCCCCCCCCCCC(=O)OC` [methyl behenate], for which the LC retention time is 61.2 min.

As to `COc1cc(C=Cc2ccc(O)cc2)cc(OC)c1` [pterostilbene], the LC retention time was 41.4 min.

With `O=C(C=Cc1ccc(O)c(O)c1)OC(Cc1ccc(O)c(O)c1)C(=O)O` (stereo unspecified) [rosmarinic acid], the LC retention time is 30 min.

Consider `O=CC(O)C(O)C(O)CO` (stereo unspecified) [arabinose], for which the LC retention time was 1.41 min.

For the compound `OCC1OC(OCC2OC(OCC3OC(OC4(CO)OC(CO)C(O)C4O)C(O)C(O)C3O)C(O)C(O)C2O)C(O)C(O)C1O` (stereo unspecified) [stachyose], the LC retention time is 2.4 min.

With `C=C(C)C1CCC2(C(=O)O)CCC3(C)C(CCC4C5(C)CCC(O)C(C)(C)C5CCC43C)C12` (stereo unspecified) [betulinic acid], the LC retention time was 53.2 min.

`COc1cc(/C=C/CO)cc(OC)c1O` [sinapyl alcohol]: the LC retention time was 23.6 min.

With `OCC1OC(Oc2ccc(O)cc2)C(O)C(O)C1O` (stereo unspecified) [arbutin], the LC retention time is 7.61 min.

For `CC1=CCCC(C)(C)C12CCC(C)O2` (racemic), the LC retention time is 48.1 min.

Consider `O=c1cc2oc(-c3cc(O)c(O)c(O)c3)c(O)cc-2c(O)c1` [delphinidin], for which the LC retention time was 27.1 min.

`O=c1ccn(C2OC(CO)C(O)C2O)c(=O)[nH]1` (stereo unspecified) [uridine]: the LC retention time was 7 min.

For the compound `CCCCCCN` [hexylamine], the LC retention time is 15.1 min.

Consider `Oc1cc(O)c2c(c1)OC(c1cc(O)c(O)c(O)c1)C(O)C2` (stereo unspecified) [epigallocatechin], for which the LC retention time is 16.5 min.

On to `COc1cc(-c2oc3cc(=O)cc(O)c-3cc2OC2OC(COC(=O)C=Cc3ccc(O)cc3)C(O)C(O)C2O)ccc1O` (stereo unspecified) [peonidin-3-O-(6-p-coumaroyl)-glucoside], for which the LC retention time was 33 min.

Regarding `COc1cc(-c2oc3cc(O)cc(O)c3c(=O)c2OC2OC(COC3OC(C)C(O)C(O)C3O)C(O)C(O)C2O)ccc1O` (stereo unspecified) [isorhamnetin 3-rutinoside], the LC retention time was 31.7 min.

Turning to `CC1OC(O)C(O)C(O)C1O` (stereo unspecified) [rhamnose], the LC retention time is 1.57 min.

`CC(=O)C=CC1C(C)CCCC1(C)C` (stereo not drawn) [dihidro alpha ionone]: the LC retention time is 46.1 min.

`CC(O)C(=O)O` (stereo unspecified) [lactic acid]: the LC retention time is 2.51 min.

For the compound `O=C(O)C(=O)C(O)C(O)C(O)CO` [2-keto-D-gluconic acid], the LC retention time is 1.4 min.

Consider `CC1OC(Oc2c(-c3ccc(O)c(O)c3)oc3cc(O)cc(O)c3c2=O)C(O)C(O)C1O` (stereo unspecified) [quercitrin], for which the LC retention time is 31.1 min.

Regarding `CC1OC(OCC2OC(Oc3c(-c4ccc(O)cc4)oc4cc(OC5OC(C)C(O)C(O)C5O)cc(O)c4c3=O)C(O)C(O)C2O)C(O)C(O)C1O` (stereo unspecified) [robinin], the LC retention time was 28.6 min.

As to `Oc1ccc(C2Oc3cc(O)c4c(c3C2c2cc(O)cc(O)c2)C2C(c3ccc(O)cc3)c3c(O)cc5c(c3C2C4c2ccc(O)cc2)C(c2cc(O)cc(O)c2)C(c2ccc(O)cc2)O5)cc1` (stereo unspecified) [ampelopsin H], the LC retention time is 29.8 min.

Consider `O=c1cc(-c2ccccc2)oc2cc(O)c(O)c(O)c12` [baicalein], for which the LC retention time is 36.6 min.

Regarding `Cc1ccc(C=O)o1` [5-methyl furfural], the LC retention time was 20.3 min.

With `O=c1c(O)c(-c2ccc(O)cc2)oc2cc(O)cc(O)c12` [kaempferol], the LC retention time was 36.6 min.

With `CCCCCCCCC=CCCCCCCCC(=O)OC` [methyl oleate], the LC retention time is 56.5 min.

With `O=C(O)c1cc2ccccc2[nH]1` [indole-2-carboxylic acid], the LC retention time was 38.5 min.

On to `CC1OC(OCC2OC(Oc3c(-c4ccc(O)c(O)c4)oc4cc(O)cc(O)c4c3=O)C(O)C(O)C2O)C(O)C(O)C1O` (stereo unspecified) [quercetin 3-rutinoside], for which the LC retention time is 29.1 min.

Consider `OCC1OC(OC2C(Oc3cc4c(O)cc(O)cc4[o+]c3-c3ccc(O)c(O)c3)OC(CO)C(O)C2O)C(O)C(O)C1O` (stereo unspecified) [Cyanidin 3-sophoroside], for which the LC retention time was 21.4 min.

Regarding `CC(C)C(=O)OCCOc1ccccc1` [2-phenoxyethyl isobutyrate], the LC retention time was 40.2 min.

In the case of `COc1cc(C=O)cc(OC)c1O` [syringaldehyde], the LC retention time is 23.5 min.

In the case of `O=c1ccc2ccc(O)cc2o1` [umbelliferone], the LC retention time was 23.9 min.

Turning to `OCC1OC(OC2OC(CO)C(O)C(O)C2O)C(O)C(O)C1O` [D-(+)-trehalose], the LC retention time was 1.5 min.

`NC(=O)c1cccnc1` [nicotinamide]: the LC retention time is 3.79 min.

As for `OCC1OC(O)C(O)C(O)C1O` (stereo unspecified) [allose], the LC retention time was 1.35 min.

As to `Cn1c(=O)c2c(ncn2C)n(C)c1=O` [caffeine], the LC retention time was 20.4 min.

Consider `Cn1cnc2c1c(=O)[nH]c(=O)n2C` [theobromine], for which the LC retention time is 15.3 min.

For the compound `OCC1OC(Oc2ccccc2)C(O)C(O)C1O` (stereo unspecified), the LC retention time was 16.4 min.

Turning to `O=C1CC(c2ccc(O)c(O)c2)Oc2cc(O)cc(O)c21` (stereo unspecified) [eriodictyol], the LC retention time is 31 min.

In the case of `NCC(=O)O` [glycine], the LC retention time was 1.22 min.

`NC(=O)CC[C@H](N)C(=O)O` [L-Glutamine]: the LC retention time is 1.3 min.

Consider `COc1cc(-c2[o+]c3cc(O)cc(O)c3cc2OC2OC(CO)C(O)C(O)C2O)ccc1O` (stereo unspecified) [peonidin 3-galactoside], for which the LC retention time is 24 min.

For `O=C(O)C(O)Cc1c[nH]c2ccccc12` (stereo unspecified) [Indolelactic acid], the LC retention time was 24.6 min.

As for `CC1OC(OCC2OC(Oc3cc4c(O)cc(O)cc4[o+]c3-c3ccc(O)c(O)c3)C(O)C(O)C2O)C(O)C(O)C1O` (stereo unspecified) [cyanidin-3-rutinoside], the LC retention time was 23.1 min.

`NCCCCN` [1,4-diaminobutane]: the LC retention time was 1.1 min.

Regarding `O=C(O)c1c(O)cccc1O` [2,6-dihydroxybenzoic acid], the LC retention time was 16.9 min.

As to `Nc1nc2nc[nH]c2c(=O)[nH]1` [guanine], the LC retention time is 3.21 min.

Consider `O=C(O)C=Cc1cccc(O)c1` [m-coumaric acid], for which the LC retention time is 26.2 min.

Turning to `NC(CCC(=O)NC(CSSCC(NC(=O)CCC(N)C(=O)O)C(=O)NCC(=O)O)C(=O)NCC(=O)O)C(=O)O` (stereo unspecified) [glutathione disulfide], the LC retention time was 9.68 min.
